Measured values taken from EP0358508A2, “Novel immunosuppressant compound” (MERCK & CO. INC., priority 1988, dated 1990).
Entries after “also recorded” stand apart in the source; their conditions may differ.

Experiments:
[1] = system: mouse T lymphocytes stimulated with the combination of ionomycin plus PMA; experiment: T-cell proliferation assay (ionomycin plus PMA induced T-cell stimulation, tritiated thymidine uptake); type: cell-based, C57B1/6 mice
Text: The principle of this assay is to measure the proliferation of mouse T lymphocytes stimulated with the combination of ionomycin plus PMA. A positive sample in this assay will inhibit T-cell proliferation, as indicated by reduced tritiated thymidine uptake.
Spleens from C57B1/6 mice were taken under sterile conditions and gently dissociated in ice-cold RPMI 1640 culture medium (GIBCO, Grand Island, N.Y.) supplemented with 10% heat-inactivated fetal calf serum (GIBCO). Cells were pelleted by centrifugation at 1500 rpm for 8 minutes. Contaminating red cells were removed by treating the pellet with ammonium chloride lysing buffer (GIBCO) for 2 minutes at 4°C. […]
Purified T lymphocytes were resuspended at 2.5 x 10⁵ cells/ml in complete culture medium composed of RPMI 1640 medium with 10% heat-inactivated fetal calf serum, […] glutamine, 1 mM sodium pyruvate, 2 x 10⁻⁵ M 2-mercaptoethanol and 50 µg/ml gentamycin. […] The proliferation of T lymphocytes was assessed by measurement of tritiated thymidine incorporation. […] Radioactivity of filter discs corresponding to individual wells was measured by standard liquid scintillation counting methods (Beta counter). Mean counts per minute of replicate wells were calculated and the results expressed as percent inhibition of tritiated thymidine uptake (proliferation) as follows: [formula] […]

[2] = Physical characteristics: solubility; type: physicochemical; settings: solvent methanol; qualitative
Text: White amorphous powder • 2. […] Molecular weight of 805, as determined by mass spectrometry consistent with a molecular ion at (m/z) 1093.6556 for the tetra-(trimethylsilyl) derivative and characteristic fragment ions at (m/z) 673 and 481.
White amorphous powder • 2. […] Molecular weight of 805, as determined by mass spectrometry consistent with a molecular ion at (m/z) 1021.6169 for the tri-(trimethylsilyl) derivative and characteristic fragment ions at (m/z) 675 and 483.

Compound: CCC[C@@H]1/C=C(\C)C[C@H](C)C[C@H](OC)[C@H]2O[C@@](O)(C(=O)C(=O)N3CCCC[C@H]3C(=O)O[C@H](/C(C)=C/[C@@H]3CC[C@@H](O)[C@H](OC)C3)[C@H](C)[C@@H](O)CC1=O)[C@H](C)C[C@@H]2OC [Tsukubamycin B]
- inhibition of T-cell proliferation after addition of IL-2 ([1]; 50 units/ml of IL-2 (recombinant human IL-2) added at the initiation of culture): reversed
- inhibition of T-cell activation / % inhibition of tritiated thymidine uptake (proliferation) ([1]; purified mouse spleen T lymphocytes, ionomycin 250 ng/ml plus PMA 10 ng/ml, 44 hours culture plus 4 hours pulse, various concentrations, no numbers given): indicated its immunosuppressant properties; also recorded: positive inhibition of T-cell activation
- Solubility [2]: Solubility in methanol
